39 molecules from patent US20010006969A1, “PYRIMIDINE NUCLEUS-CONTAINING COMPOUND AND A MEDICAMENT CONTAINING THE SAME FOR A BLOOD OXYGEN PARTIAL PRESSURE AMELIORATION, AND A METHOD FOR PREPARING THE SAME” (priority 1997, published 2001) can be followed below.

Structures can show the parent of a compound that is named as a salt.

Test system in one series: not given
Assay: not given
Conditions: not given
Consider `C=CCNc1nc(NCC=C)c2cc(Cl)ccc2n1` [Example 1, 2,4-Diallylamino-6-chloroquinazoline], for which the melting point (as a rule, the temperature, or range, at which the solid turns liquid) lay within 78 to 79 °C.
Same read-out and setting: the value for `C=CCNc1nc(NCC=C)c2cc([N+](=O)[O-])ccc2n1` [Example 3, 2,4-Diallylamino-6-nitroquinazoline] was 198 to 200 °C (dec.); that for `C=CCNc1nc(NCCC)nc2ccc([N+](=O)[O-])cc12` [Example 4, 4-Allylamino-6-nitro-2-propylaminoquinazoline] was 197 to 198 °C; that for `C=CCNc1nc(NCC(C)(C)C)nc2ccc([N+](=O)[O-])cc12` [Example 5, 4-Allylamino-2-neopentylamino-6-nitroquinazoline] was 167 to 168 °C.
The molecule `C=CCNc1nc(NC(C)C=C)nc2ccc([N+](=O)[O-])cc12` (stereo not shown) [Example 65, 4-Allylamino-2-(1-methyl-2-propenylamino)-6-nitroquinazoline] displayed a melting point of 123 to 124 °C.
On the same count and under the same terms, the value for `C=CCNc1nc(NCC(C)(C)C)c2scc(C)c2n1` [Example 67, 2-Allylamino-7-methyl-4-neopentylaminothieno[3,2-d] pyrimidine] was 90 to 92 °C.
The same measure, in the same setting: the value for `C=CCNc1nc(NCc2ccccc2)c2scc(C)c2n1` [Example 69, 2-Allylamino-4-benzylamino-7-methylthieno[3,2-d] pyrimidine] was 97 to 98 °C.
On the same count and under the same terms, the value for `C=CCNc1nc(NC(CO)CO)c2scc(C)c2n1` [Example 73, 2-Allylamino-4-(1,3-dihydroxypropan-2-yl)amino-7-methylthieno[3,2-d]pyrimidine] was 163 to 164 °C.
The molecule `C=CCNc1nc(NC(C)C)c2scc(C)c2n1` [Example 77, 2-Allylamino-4-isopropylamino-7-methylthieno[3,2-d] pyrimidine] registered a melting point of 106 to 107 °C.
On the same count and under the same terms, to `C=CCNc1nc(NCCOC)nc2c(C)csc12` [Example 85, 4-Allylamino-2-(2-methoxyethylamino)-7-methylthieno[3,2-d] pyrimidine] belongs 87 to 88 °C; to `C=CCNc1nc(NCCC)nc2c(C)csc12` [Example 86, 4-Allylamino-7-methyl-2-propylaminothieno[3,2-d] pyrimidine], 74 to 75 °C; to `C=CCNc1nc(NNC(C)(C)C)c2scc(C)c2n1` [Example 89, 2-Allylamino-4-(2-t-butylhydrazino)-7-methylthieno[3,2-d] pyrimidine], 105 to 107 °C.
On to `C=CCNc1nc(NC(=O)C(C)(C)C)c2scc(C)c2n1` [Example 90, 2-Allylamino-7-methyl-4-pivaloylaminothieno[3,2-d] pyrimidine], for which the melting point was in the range of 88 to 89 °C.
As to `C=CCNc1nc(NC(=O)NC2CCCCC2)c2scc(C)c2n1` [Example 93, 2-Allylamino-4-(cyclohexylcarbamoyl)amino-7-methylthieno[3,2-d]pyrimidine], the melting point fell in the range of 152 to 153 °C.
In turn, `C=CCNC(=O)Nc1nc(NCC=C)nc2c(C)csc12` [Example 96, 2-Allylamino-4-(allylcarbamoyl)amino-7-methylthieno[3,2-d] pyrimidine] registered a melting point of 164 to 165 °C.
As for `C=CCNc1nc(NC(=O)NCCCC)c2scc(C)c2n1` [Example 97, 2-Allylamino-4-(butylcarbamoyl)amino-7-methylthieno[3,2-d] pyrimidine], the melting point amounted to 141 °C.
The same measure, in the same setting: to `C=CCNc1nc(NC(=O)N2CCCC2)c2scc(C)c2n1` [Example 98, 2-Allylamino-7-methyl-4-(1-pyrrolidinylcarbonyl)aminothieno[3,2-d]pyrimidine] belongs 98 to 101 °C; to `C#CCNc1nc(NCC=C)nc2c(C)csc12` [Example 99, 2-Allylamino-7-methyl-4-(2-propynylamino)thieno[3,2-d] pyrimidine], 95 to 96 °C.
`C=CCNc1nc(NCC(=C)C)c2scc(C)c2n1` [Example 100, 2-Allylamino-7-methyl-4-(2-methyl-2-propenylamino)thieno[3,2-d]pyrimidine]: the melting point was 83 °C.
Take `C=CCNc1nc(NCC=C(C)C)c2scc(C)c2n1` [Example 101, 2-Allylamino-7-methyl-4-(3-methyl-2-butenylamino)thieno[3,2-d]pyrimidine]: the melting point fell in the range of 114 to 115 °C.
Take `C=CCNc1nc(NC/C=C/c2ccccc2)c2scc(C)c2n1` [Example 102, 2-Allylamino-4-(trans-cinnamylamino)-7-methylthieno[3,2-d] pyrimidine]: the melting point fell in the range of 82 to 84 °C.
For the molecule `C=CCNc1nc(NCC=C)c2scc(-c3ccccc3)c2n1` [Example 110, 2,4-Diallylamino-7-phenylthieno[3,2-d]pyrimidine], the melting point is 98 to 100 °C.
As for `C=CCNc1nc(NCC=C)c2scc(Br)c2n1` [Example 111, 2,4-Diallylamino-7-bromothieno[3,2-d]pyrimidine], the melting point fell in the range of 87 to 88 °C.
Same read-out and setting: the value for `C=CCNC(=O)CCNc1nc(NCC=C)nc2c(C)csc12` [Example 112, 2-Allylamino-4-[2-(allylcarbamoyl)ethylamino]-7-methylthieno[3,2-d]pyrimidine] was 95 to 96 °C.

The next series concerns hypoxemic model rats. The series is described as follows: Determination of oxygen partial pressure increasing action (arterial blood PaO2 gain in hypoxemic model rats). To be noted: quinazoline derivatives; urethane-anesthetized rats, hypoxic state (PaO2≦75 mmHg) by olive oil-charcoal powder suspension; i.v. continuously 0.1 mg/kg/min; PaO2 measured 10 minutes after completion of administration; gain before vs after. It counts as in vivo, Sprague-Dawley male rats. The method, then: Determination of oxygen partial pressure increasing action
Actions of the quinazoline derivatives of the present invention to increase oxygen partial pressure in the arterial blood were determined according to the following method:
Sprague-Dawley male rats having body weights of about 250 g were anesthetized (i.p.) with urethane and cannulated to the respiratory tracts, femoral arteries and femoral veins. An olive oil-charcoal powder suspension (10 mg/ml) was introduced in an amount of 0.8 ml/kg through the respiratory tract cannulae into the lungs to cause the rats to hypoxic state (PaO2≦75 mmHg). The quinazoline derivatives listed in Table 1 were intravenously administered to these hypoxemic model rats continuously at a rate of 0.1 mg/kg/min, and arterial blood oxygen partial pressure value (PaO2) of each rat was measured at the time point of 10 minutes after completion of administration using a blood gas analyzer (Ciba Corning 800 series). Gains (APaO2) were determined based on results of PaO2 measurement made before and after administration of the test compounds.
Actions of the thienopyrimidine derivatives of the present invention to increase oxygen partial pressure in the arterial blood were determined according to the following method:
Sprague-Dawley male rats having body weights of about 250 g were anesthetized (i.p.) with urethane and cannulated to the respiratory tracts, femoral arteries and femoral veins. An olive oil-charcoal powder suspension (10 mg/ml) was introduced in an amount of 0.8 ml/kg through the respiratory tract cannulae into the lungs to cause the rats to be under hypoxic state (PaO2 Δ 75 mmHg). The thienopyrimidine derivatives listed in Table 2 were intravenously administered to these hypoxemic model rats continuously at a rate of 0.1 mg/kg/min, and arterial blood oxygen partial pressure value (PaO2) of each rat was measured at the time point of 10 minutes after completion of administration using a blood gas analyzer (Ciba Corning 800 series). Gains (ΔPaO2) were determined based on results of PaO2 measurement made before and after administration of the test compounds.
In the case of `C=CCNc1nc(NCC=C)c2cc(Cl)ccc2n1` [Example 1, 2,4-Diallylamino-6-chloroquinazoline], the ΔPaO2 turned out to be 35 mmHg.
For the molecule `C=CCNc1nc(NCC=C)c2cc([N+](=O)[O-])ccc2n1` [Example 3, 2,4-Diallylamino-6-nitroquinazoline], the ΔPaO2 stood at 28 mmHg.
The molecule `C=CCNc1nc(NCCC)nc2ccc([N+](=O)[O-])cc12` [Example 4, 4-Allylamino-6-nitro-2-propylaminoquinazoline] had a ΔPaO2 of 34 mmHg.
`C=CCNc1nc(NCC(C)(C)C)nc2ccc([N+](=O)[O-])cc12` [Example 5, 4-Allylamino-2-neopentylamino-6-nitroquinazoline] returned a ΔPaO2 of 43 mmHg.
In turn, `C=CCNc1nc(NCCCCC)c2cc([N+](=O)[O-])ccc2n1` [Example 25, 2-Allylamino-6-nitro-4-pentylaminoquinazoline hydrochloride] had a ΔPaO2 of 46 mmHg.
Still for that read-out and setting: to `C=CCNc1nc(NCCCCCCC)c2cc([N+](=O)[O-])ccc2n1` [Example 26, 2-Allylamino-4-heptylamino-6-nitroquinazoline hydrochloride] belongs 46 mmHg; to `C=CCNc1nc(NC2CCCC2)c2cc([N+](=O)[O-])ccc2n1` [Example 27, 2-Allylamino-4-cyclopentylamino-6-nitroquinazoline hydrochloride], 35 mmHg; to `C=CCNc1nc(NC(C)C)c2cc([N+](=O)[O-])ccc2n1` [Example 28, 2-Allylamino-4-isopropylamino-6-nitroquinazoline hydrochloride], 26 mmHg.
Regarding `C=CCNc1nc(NCCCC)nc2ccc([N+](=O)[O-])cc12` [Example 31, 4-Allylamino-2-butylamino-6-nitroquinazoline hydrochloride], the ΔPaO2 is recorded as 36 mmHg.
In the case of `C=CCNc1nc(NCc2ccco2)nc2ccc([N+](=O)[O-])cc12` [Example 33, 4-Allylamino-2-furfurylamino-6-nitroquinazoline hydrochloride], the ΔPaO2 is recorded as 42 mmHg.
For `C=CCNc1nc(NC2CCCC2)nc2ccc([N+](=O)[O-])cc12` [Example 34, 4-Allylamino-2-cyclopentylamino-6-nitroquinazoline hydrochloride], the ΔPaO2 is on record as 32 mmHg.
Still for that read-out and setting: the value for `C=CCNc1nc(NCCCCC)nc2ccc([N+](=O)[O-])cc12` [Example 35, 4-Allylamino-6-nitro-2-pentylaminoquinazoline hydrochloride] was 34 mmHg.
As to `C=CCNc1nc(NC(C)CC)c2cc([N+](=O)[O-])ccc2n1` (stereo not drawn) [Example 49, 2-Allyiamino-4-(l-methylpropylamino)-6-nitroquinazoline hydrochloride], the ΔPaO2 amounted to 32 mmHg.

The same series, now with this note: thienopyrimidine derivatives; urethane-anesthetized rats, hypoxic state (PaO2 Δ 75 mmHg) by olive oil-charcoal powder suspension; i.v. continuously 0.1 mg/kg/min; PaO2 measured 10 minutes after completion of administration; gain before vs after.
On to `C=CCNc1nc(NC2CCCCC2)c2scc(C)c2n1` [Example 70, 2-Allylamino-4-cyclohexylamino-7-methylthieno[3,2-d] pyrimidine hydrochloride], for which the ΔPaO2 came out at 42 mmHg.
`C=CCNc1nc(N(CC=C)CC=C)c2scc(C)c2n1` [Example 71, 2-Allylamino-4-diallylamino-7-methylthieno[3,2-d] pyrimidine hydrochloride] gave a ΔPaO2 of 26 mmHg.
The same measure, in the same setting: to `C=CCNc1nc(NC(C)(C)C)c2scc(CC)c2n1` [Example 104, 2-Allylamino-4-t-butylamino-7-ethylthieno[3,2-d]pyrimidine] belongs 41 mmHg; to `C=CCNc1nc(NCC=C)c2scc(CCC)c2n1` [Example 105, 2,4-Diallylamino-7-propylthieno[3,2-d]pyrimidine], 28 mmHg; to `C=CCNc1nc(NC(C)(C)C)c2scc(CCC)c2n1` [Example 106, 2-Allylamino-4-t-butylamino-7-propylthieno[3,2-d] pyrimidine], 28 mmHg.
Still for that read-out and setting: the value for `C=CCNc1nc(NC)c2scc(CCC)c2n1` [Example 107, 2-Allylamino-4-methylamino-7-propylthieno[3,2-d] pyrimidine] was 41 mmHg.
